Laboratory results published in ChEMBL document CHEMBL1201862, “PubChem BioAssay data set” (2004).
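Values below derive from 48-hour exposures of cells grown in 96-well plates, with endpoints linearly interpolated between the two concentrations bracketing the appropriate inhibition level. The concentration for 50% growth inhibition is given as GI50.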 Active and inactive are the calls of the source. Cut-off read from the data, not from the text of the source: active = GI50 up to about 1.1 µM and inactive = higher.

What was measured:
Assay in all cases: growth of human tumour cells (NCI), 48 h
SK-MEL-2 = tested on: SK-MEL-2
OVCAR-5 = tested on: OVCAR-5
T47D = tested on: T47D
COLO 205 = tested on: COLO 205
NCI-H23 = tested on: NCI-H23
OVCAR-3 = tested on: OVCAR-3
NCI/ADR-RES = tested on: NCI/ADR-RES
SF-539 = tested on: SF-539
HCT-116 = tested on: HCT-116
SF-268 = tested on: SF-268
HCC 2998 = tested on: HCC 2998
NCI-H460 = tested on: NCI-H460
OVCAR-4 = tested on: OVCAR-4
M14 = tested on: M14
KM12 = tested on: KM12
IGROV-1 = tested on: IGROV-1
SK-OV-3 = tested on: SK-OV-3
MOLT-4 = tested on: MOLT-4
A549 = tested on: A549
RPMI-8226 = tested on: RPMI-8226

SMILES	GI50 (SK-MEL-2)	GI50 (OVCAR-5)	GI50 (T47D)	GI50 (COLO 205)	GI50 (NCI-H23)	GI50 (OVCAR-3)	GI50 (NCI/ADR-RES)	GI50 (SF-539)	GI50 (HCT-116)	GI50 (SF-268)	GI50 (HCC 2998)	GI50 (NCI-H460)	GI50 (OVCAR-4)	GI50 (M14)	GI50 (KM12)	GI50 (IGROV-1)	GI50 (SK-OV-3)	GI50 (MOLT-4)	GI50 (A549)	GI50 (RPMI-8226)
O=S(=O)(O)c1ccc(/N=N/c2ccccc2)cc1	> 100 µM (inactive)	> 100 µM (inactive)	> 100 µM (inactive)	> 100 µM (inactive)	> 100 µM (inactive)	> 100 µM (inactive)	> 100 µM (inactive)	> 100 µM (inactive)	> 100 µM (inactive)	> 100 µM (inactive)	> 100 µM (inactive)	> 100 µM (inactive)	> 100 µM (inactive)	> 100 µM (inactive)	> 100 µM (inactive)	> 100 µM (inactive)	> 100 µM (inactive)	> 100 µM (inactive)	> 100 µM (inactive)	> 100 µM (inactive)
COC(=O)NNC(c1ccc(Cl)cc1)c1ccc(Cl)cc1	12.4 µM (inactive)	15.7 µM (inactive)	19.9 µM (inactive)	18.1 µM (inactive)	16.3 µM (inactive)	15.2 µM (inactive)	18.2 µM (inactive)	20.7 µM (inactive)	15.7 µM (inactive)	21.8 µM (inactive)	13.5 µM (inactive)	16.5 µM (inactive)	20.8 µM (inactive)	15.7 µM (inactive)	17 µM (inactive)	16.4 µM (inactive)	23.7 µM (inactive)	16.5 µM (inactive)	15.3 µM (inactive)	20.9 µM (inactive)
COc1cc2c(cc1Cl)[n+]([O-])c(C#N)c(N1CCN(c3ccc([N+](=O)[O-])cc3)CC1)[n+]2[O-]	49.3 µM (inactive)	67.8 µM (inactive)	3.48 µM (inactive)	34.4 µM (inactive)	17.1 µM (inactive)	52.6 µM (inactive)	15.5 µM (inactive)	10.8 µM (inactive)	24 µM (inactive)	13.1 µM (inactive)	19.1 µM (inactive)	7.78 µM (inactive)	30 µM (inactive)	17.5 µM (inactive)	21.9 µM (inactive)	2.17 µM (inactive)	23.9 µM (inactive)	5 µM (inactive)	11.6 µM (inactive)	0.631 µM (active)
BC(=O)NC(CC(C)C)C(=O)NCC(=O)NC1c2ccsc2C(=O)C1O.CN(C)C (stereo not given)	> 100 µM (inactive)	> 100 µM (inactive)	> 100 µM (inactive)	> 100 µM (inactive)	> 100 µM (inactive)	> 100 µM (inactive)	> 100 µM (inactive)	> 100 µM (inactive)	> 100 µM (inactive)	> 100 µM (inactive)	> 100 µM (inactive)	31.6 µM (inactive)	> 100 µM (inactive)	> 100 µM (inactive)	> 100 µM (inactive)	> 100 µM (inactive)	> 100 µM (inactive)	> 100 µM (inactive)	> 100 µM (inactive)	> 100 µM (inactive)
